Data published in patent publication US8183296B2, “Pesticide phenyloxy substituted phenylamidine derivatives” (Bayer Cropscience AG, priority 2005, dated 2012).

Key:
[1] = logP by HPLC on reversed-phase column (C 18), EEC Directive 79/831 Annex V.A8; format: physicochemical
[2] = as above; format: physicochemical; conditions: reversed-phase HPLC column (C 18), C 18, 40° C., 0.1% aqueous formic acid and acetonitrile, read-out: logPa
Procedure: Temperature: 40° C.; Mobile phases: 0.1% aqueous formic acid and acetonitrile; linear gradient from 10% acetonitrile to 90% acetonitrile.
Calibration was carried out using unbranched alkan-2-ones (comprising 3 to 16 carbon atoms) with known logP values (determination of the logP values by the retention times using linear interpolation between two successive alkanones).

[3] = system: Puccinia recondita f. Sp. tritici; assay: In vivo preventive test on Puccinia recondita f. Sp. tritici (wheat brown rust); conditions: topical, 240 h, 1000 ppm of active ingredient, evaluated 10 days after inoculation, read-out: efficacy
Procedure: In Vivo Preventive Test on Puccinia recondita f. Sp. tritici (Wheat Brown Rust)
(§1) To produce a suitable preparation of active compound, 1 part by weight of active compound is mixed with the stated amounts of solvent and emulsifier, and the concentrate is diluted with water to the desired concentration.
To test for preventive activity, young plants are […]. After the spray coating has dried on, the plants are sprayed with the preparation of active compound at the stated rate of application. The plants remain for 24 hours in an incubation cabinet at 20° C. and a relative atmospheric humidity of 100%.
The plants are placed in a greenhouse at a temperature of approximately 20° C. and a relative atmospheric humidity of approximately 80% to promote the development of rust pustules.
The test is evaluated 10 days after the inoculation. 0% means an efficacy which corresponds to that of the control, while an efficacy of 100% means that no disease is observed.

[4] = system: Erysiphe graminis f.sp. hordei; assay: In vivo preventive test on Erysiphe graminis (powdery mildew on barley); conditions: Blumeria graminis, topical, 168 h, 1000 ppm of active ingredient, evaluated 7 days after inoculation, read-out: efficacy
Procedure: In Vivo Preventive Test on Erysiphe gramini (Powdery Mildew on Barley)
To produce a suitable preparation of active compound, 1 part by weight of active compound or active compound combination is mixed with the stated amounts of solvent and emulsifier, and the concentrate is diluted with water to the desired concentration.
To test for preventive activity, young plants are sprayed with the preparation of active compound or active compound combination at the stated rate of application.
After the spray coating has dried on, the plants are dusted with spores of Erysiphe graminis f.sp. hordei
The plants are placed in a greenhouse at a temperature of approximately 20° C. and a relative atmospheric humidity of approximately 80% to promote the development of mildew pustules.
(§2) The test is evaluated 7 days after the inoculation. 0% means an efficacy which corresponds to that of the control, while an efficacy of 100% means that no disease is observed.

Alternaria solani = assay: In vivo protective test on Alternaria solani (leaf spot of tomato); conditions: topical, 168 h, 500 ppm of active ingredient, evaluated 7 days after inoculation, read-out: efficacy
Procedure: In Vivo Protective Test on Alternaria solani (Leaf Spot of Tomato)
as §1
To test for protective activity, young plants are sprayed with the preparation of active compound at the stated rate of application. After the spray coating has dried on, the plants are inoculated with an aqueous spore suspension of Alternatia solani. The plants remain for one day in an incubation cabinet at approximately 20° C. and a relative atmospheric humidity of 100%. Then the plants are placed in an incubation cabinet at approximately 20° C. and a relative atmospheric humidity of 96%.
The test is evaluated 7 days after the inoculation. 0% means an efficacy which corresponds to that of the control while an efficacy of 100% means that no disease is observed.

Podosphaera leucotricha = assay: In vivo protective test on Podosphaera leucotricha (apples); conditions: topical, 240 h, 100 ppm of active ingredient, evaluated 10 days after inoculation, read-out: efficacy
Description: In Vivo Protective Test on Podosphaera leucotricha (Apples) [table] […] To test for protective activity, young plants are sprayed with the preparation of active compound at the stated rate of application. After the spray coating has dried on, the plants are inoculated with an aqueous spore suspension of the causal agent of apple mildew (Podosphaera leucotricha).

Sphaerotheca fuliginea = assay: In vivo protective test on Sphaerotheca fuliginea (cucumbers); conditions: Podosphaera fuliginea, topical, 168 h, 100 ppm of active ingredient, evaluated 7 days after inoculation, read-out: efficacy
Procedure: In Vivo Protective Test on Sahaerotheca fuliginea (Cucumbers)
as §1
To test for protect activity, young plants are sprayed with the preparation of active compound at the stated rate of application. After the spray coating has dried on, the plants are inoculated with an aqueous spore suspension of Sphaerotheca fuliginea. The plants are then placed in a greenhouse at approximately 23° C. and a relative atmospheric humidity of approximately 70%.
as §2

Aedes aegypti larvae = assay: In vivo protective test on Aedes aegypti (AEDSAE U)
Procedure: In Vivo Protective Test on Aedes Aegypti (AEDSAE U)
To produce a suitable preparation of the active compound, the active compound is mixed with the stated amount of solvent, and the concentrate is diluted with staining water to the desired concentration.
Aedes aegypti larvae are pipetted with a preparation of active ingredient of the desired concentration.
After the specified period of time, mortality in % is determined. 100% means that all larvae have been killed, a 0% means that none of the larvae have been killed.

[5] = system: eggs of cotton bollworm (Heliothis virescens); assay: In vivo protective test on Heliothis virescens (HELIVI U); conditions: soybean leaf sections infested with Heliothis virescens eggs
Description: In Vivo Protective Test on Heliothis virescens (HELIVI U)
To produce a suitable preparation of the active compound, 1 part by weight of active compound is mixed with the stated amount of solvent and emulsifier, and the concentrate is dilutes with emulsifier-containing water to the desired concentration.
Soybean (Glycine max.) leaf sections are sprayed with a preparation of the active ingredient of the desired concentration. Once dry, the leaf sections are infested with eggs of cotton bollworm (Heliotis virescens).
After the specified period of time, mortality in % is determined. 100% means that all eggs have been killed and 0% means that none of the eggs have been killed.

[6] = system: mosquito larvae (Aedes aegypti); assay: In vivo protective test on Aedes aegypti (AEDSAE MO); conditions: Aedes aegypti third larvae
Procedure: In Vivo Protective Test on Aedes aegypti (AEDSAE MO)
To produce a suitable preparation of active compound, 1 part by weight of active compound is mixed with the stated amount of solvent, and the concentrate is diluted with water to the desired concentration.
10 to 20 third mosquito larvae (Aedes aegypti) are added to the well and incubated.
After the specified period of time, mortality in % is determined. 100% means that all of the larvae have been killed; 0% means that none of the larvae have been killed.

Row | SMILES | log P (pH 2.3) [1] | chromatographic logP [2] | pest or weed control at 1000 ppm [3] [%] | pest or weed control at 1000 ppm [4] [%] | pest or weed control at 500 ppm (Alternaria solani) [%] | pest or weed control at 100 ppm (Podosphaera leucotricha) [%] | pest or weed control at 100 ppm (Sphaerotheca fuliginea) [%] | activity (mortality of larvae) (Aedes aegypti larvae) | activity (mortality of eggs) [5] | activity (mortality of larvae) [6]
1 | Cc1cc(Oc2ccc(Cl)c(C(C)(C)C)c2)c(Cl)cc1N [4-(3-t-butyl-4-chlorohenoxy)-5-chloro-2-methylaniline] | 5.68 | – | – | – | – | – | – | – | – | –
2 | Cc1cc([N+](=O)[O-])c(C)cc1Oc1ccc(Cl)c(C(C)(C)C)c1 [4-(3-t-butyl-4-chlorphenoxy)-2,5-dimethylnitrobenzene] | 6.32 | – | – | – | – | – | – | – | – | –
3 | Cc1cc(Oc2ccc(Cl)c(C(C)(C)C)c2)c(C)cc1N [4-(3-t-butyl-4-chlorphenoxy)-2,5-xylidine] | 4.38 | – | – | – | – | – | – | – | – | –
4 | Cc1cc(Oc2ccc(Cl)c(C(C)(C)C)c2)c(Cl)cc1[N+](=O)[O-] [4-(3-t-butyl-4-chlorphenoxy)-5-chloro-2-methylnitrobenzene] | 6.32 | – | – | – | – | – | – | – | – | –
5 | CCN(C)C=Nc1cc(Cl)c(Oc2ccc(Cl)c(C(C)(C)C)c2)cc1C [Example 1, N-Ethyl-N-methyl-N′-[4-(3-t-butyl-4-chlorphenoxy)-5-chloro-2-methylphenyl]formamidine] | 2.80 | – | – | – | – | – | – | – | – | –
6 | CCN(C)C=Nc1cc(C)c(Oc2ccc(Cl)c(C(C)(C)C)c2)cc1C [Example 2, N-Ethyl-N-methyl-N′-[4-(3-t-butyl-4-chlorphenoxy)-2,5-xylyl]formamidine] | 3.04 | – | – | – | – | – | – | – | – | –
7 | CCN(C)/C=N/c1cc(C)c(Oc2ccc(Cl)c(C(C)C)c2)cc1C [Example 3] | – | 2.75 | ≥ 70 | ≥ 70 | ≥ 70 | ≥ 70 | ≥ 70 | good activity | – | –
8 | Cc1cc(Oc2ccc(Cl)c(C(C)(C)C)c2)c(C)cc1/N=C/N(C)C(C)C [Example 9] | – | 3.42 | ≥ 70 | ≥ 70 | ≥ 70 | ≥ 70 | ≥ 70 | – | – | –
9 | CCc1cc(Oc2cc(C)c(/N=C/N(C)CC)cc2Cl)ccc1Cl [Example 13] | – | 2.78 | ≥ 70 | ≥ 70 | ≥ 70 | ≥ 70 | ≥ 70 | – | – | –
10 | CCCN(C)/C=N/c1cc(C)c(Oc2ccc(Cl)c(CC)c2)cc1C [Example 14] | – | 2.76 | ≥ 70 | ≥ 70 | ≥ 70 | ≥ 70 | ≥ 70 | – | – | –
11 | CCCN(C)/C=N/c1cc(C)c(Oc2ccc(Br)c(C(C)C)c2)cc1C [Example 17] | – | 2.91 | ≥ 70 | ≥ 70 | ≥ 70 | ≥ 70 | ≥ 70 | – | – | –
12 | Cc1cc(Oc2ccc(Br)c(C(C)C)c2)c(C)cc1/N=C/N(C)C(C)C [Example 18] | – | 3.34 | ≥ 70 | ≥ 70 | ≥ 70 | ≥ 70 | ≥ 70 | – | good activity | good activity

Now from value to compound, other results behind:

Row | log P (pH 2.3) [1] | chromatographic logP [2] | SMILES | pest or weed control at 1000 ppm [3] [%] | pest or weed control at 1000 ppm [4] [%] | pest or weed control at 500 ppm (Alternaria solani) [%] | pest or weed control at 100 ppm (Podosphaera leucotricha) [%] | pest or weed control at 100 ppm (Sphaerotheca fuliginea) [%] | activity (mortality of larvae) (Aedes aegypti larvae) | activity (mortality of eggs) [5] | activity (mortality of larvae) [6]
13 | – | 3.04 | CCN(C)/C=N/c1cc(C)c(Oc2ccc(Br)c(C(C)C)c2)cc1C [Example 19] | ≥ 70 | ≥ 70 | ≥ 70 | ≥ 70 | ≥ 70 | – | – | –
14 | – | 2.95 | CCN(C)/C=N/c1cc(Cl)c(Oc2ccc(Cl)c(C(C)C)c2)cc1C [Example 20] | ≥ 70 | ≥ 70 | ≥ 70 | ≥ 70 | ≥ 70 | – | – | –
15 | – | 3.03 | CCCN(C)/C=N/c1cc(Cl)c(Oc2ccc(Cl)c(C(C)C)c2)cc1C [Example 21] | ≥ 70 | ≥ 70 | ≥ 70 | ≥ 70 | ≥ 70 | – | – | –
16 | – | 3.17 | Cc1cc(Oc2ccc(Cl)c(C(C)C)c2)c(Cl)cc1/N=C/N(C)C(C)C [Example 22] | ≥ 70 | ≥ 70 | ≥ 70 | ≥ 70 | ≥ 70 | – | – | –
17 | – | 3.27 | CCCN(C)/C=N/c1cc(Cl)c(Oc2ccc(Cl)c(C(C)(C)C)c2)cc1C [Example 25] | ≥ 70 | ≥ 70 | ≥ 70 | ≥ 70 | ≥ 70 | – | – | –
18 | – | 3.02 | CCN(C)/C=N/c1cc(Cl)c(Oc2ccc(Cl)c(C(C)(C)C)c2)cc1C [Example 26] | ≥ 70 | ≥ 70 | ≥ 70 | ≥ 70 | ≥ 70 | – | – | –
19 | – | 2.74 | Cc1cc(Oc2ccc(Cl)c(C(C)C)c2)c(C)cc1/N=C/N(C)C(C)C [Example 28] | ≥ 70 | ≥ 70 | ≥ 70 | ≥ 70 | ≥ 70 | – | – | –
20 | – | 2.84 | CCN(C)/C=N/c1cc(Cl)c(Oc2ccc(Br)c(C(C)C)c2)cc1C [Example 30] | ≥ 70 | ≥ 70 | ≥ 70 | ≥ 70 | ≥ 70 | – | – | –
21 | – | 2.75 | CCc1cc(Oc2cc(C)c(/N=C/N(C)C(C)C)cc2C)ccc1Cl [Example 32] | ≥ 70 | ≥ 70 | ≥ 70 | ≥ 70 | ≥ 70 | – | – | –
